Measurements: ChEMBL document CHEMBL1201861, “Genomics of Drug Sensitity in Cancer screening data, Wellcome Trust Sanger Institute”

Legend:
[1] = system: EGI-1; experiment: cells; assay type: functional, cell-based; details: Homo sapiens;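 note: cell viability readout used to gauge growth inhibition of EGI-1 cells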
Description: SANGER: Inhibition of human EGI-1 cell growth in a cell viability assay.

[2] = system: SJRH30; experiment: cells; assay type: functional, cell-based; details: Homo sapiens;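 note: growth inhibition of human SJRH30 cells, read out with a cell viability assay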
Description: SANGER: Inhibition of human SJRH30 cell growth in a cell viability assay.

[3] = system: D-392MG; experiment: cells; assay type: functional, cell-based; details: Homo sapiens
[4] = system: DU-145; experiment: cells; assay type: functional, cell-based; details: Homo sapiens
Description: SANGER: Inhibition of human DU-145 cell growth in a cell viability assay.

[5] = system: MCF7; experiment: cells; assay type: functional, cell-based; details: Homo sapiens;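 note: growth inhibition of human MCF7 cells, read out with a cell viability assay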
Description: SANGER: Inhibition of human MCF7 cell growth in a cell viability assay.

[6] = system: HGC-27; experiment: cells; assay type: functional, cell-based; details: Homo sapiens;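 note: growth inhibition of human HGC-27 cells, read out in a cell viability assay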
Description: SANGER: Inhibition of human HGC-27 cell growth in a cell viability assay.

[7] = system: MKN-28; experiment: cells; assay type: functional, cell-based; details: Homo sapiens;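 note: cell viability assay read-out, IC50 reflects suppression of growth of human MKN-28 cells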
Description: SANGER: Inhibition of human MKN28 cell growth in a cell viability assay.

[8] = system: CESS; experiment: SANGER: Inhibition of human CESS cell growth in a cell viability assay.; assay type: functional, cell-based; details: Homo sapiens, CESS
[9] = system: KOSC-2; experiment: cells; assay type: functional, cell-based; details: Homo sapiens;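 note: growth inhibition of KOSC-2 cells, read out by a cell viability assay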
Description: SANGER: Inhibition of human KOSC-2 cell growth in a cell viability assay.

[10] = system: LCLC-97TM1; experiment: cells; assay type: functional, cell-based; details: Homo sapiens;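 note: cell viability assay measuring growth inhibition of human LCLC-97TM1 cells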
Description: SANGER: Inhibition of human LCLC-97TM1 cell growth in a cell viability assay.

[11] = system: SW48; experiment: cells; assay type: functional, cell-based; details: Homo sapiens;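 note: growth inhibition of SW48 cells, read out with a cell viability assay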
Description: SANGER: Inhibition of human SW48 cell growth in a cell viability assay.

[12] = system: HSC-4; experiment: cells; assay type: functional, cell-based; details: Homo sapiens;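 note: growth inhibition of human HSC-4 cells, read out with a cell viability assay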
Description: SANGER: Inhibition of human HSC-4 cell growth in a cell viability assay.

[13] = system: NCI-H596; experiment: cells; assay type: functional, cell-based; details: Homo sapiens;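 note: growth inhibition of NCI-H596 cells, read out with a cell viability assay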
Description: SANGER: Inhibition of human NCI-H596 cell growth in a cell viability assay.

[14] = system: 23132-87; experiment: cells; assay type: functional, cell-based; details: Homo sapiens
Description: SANGER: Inhibition of human 23132-87 cell growth in a cell viability assay.

[15] = system: SW1783; experiment: cells; assay type: functional, cell-based; details: Homo sapiens
Description: SANGER: Inhibition of human SW1783 cell growth in a cell viability assay.

[16] = system: LOUCY; experiment: cells; assay type: functional, cell-based, Homo sapiens; details: Homo sapiens, LOUCY;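 note: growth inhibition of human LOUCY cells, read out with a cell viability assay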
Description: SANGER: Inhibition of human LOUCY cell growth in a cell viability assay.

[17] = system: KMOE-2; experiment: cells; assay type: functional, cell-based, Homo sapiens; details: Homo sapiens, KMOE-2;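 note: growth inhibition of human KMOE-2 cells, read out with a cell viability assay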
Description: SANGER: Inhibition of human KMOE-2 cell growth in a cell viability assay.

[18] = system: SIG-M5; experiment: cells; assay type: functional, cell-based, Homo sapiens; details: Homo sapiens, SIG-M5;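 note: cell viability assay read-out, measuring how strongly growth of cultured human SIG-M5 cells is inhibited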
Description: SANGER: Inhibition of human SIG-M5 cell growth in a cell viability assay.

[19] = system: NCI-H510A; experiment: cells; assay type: functional, cell-based, Homo sapiens; details: Homo sapiens, NCI-H510A;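 note: growth inhibition of NCI-H510A cells, read out with a cell viability assay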
Description: SANGER: Inhibition of human NCI-H510A cell growth in a cell viability assay.

[20] = system: RL95-2; experiment: cells; assay type: functional, cell-based, Homo sapiens; details: Homo sapiens, RL95-2;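 note: RL95-2 growth inhibition determined through a cell viability readout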
Description: SANGER: Inhibition of human RL95-2 cell growth in a cell viability assay.

[21] = system: JIYOYE; experiment: cells; assay type: functional, cell-based, Homo sapiens; details: Homo sapiens, JIYOYE
Description: SANGER: Inhibition of human JiyoyeP-2003 cell growth in a cell viability assay.

[22] = system: Raji; experiment: cells; assay type: functional, cell-based, Homo sapiens; details: Homo sapiens, Raji;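 note: cell viability assay measuring inhibition of Raji cell growth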
Description: SANGER: Inhibition of human Raji cell growth in a cell viability assay.

[23] = system: EW-22; experiment: cells; assay type: functional, cell-based; details: Homo sapiens;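 note: growth inhibition of the EW-22 cell line, measured with a cell viability readout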
Description: SANGER: Inhibition of human EW-22 cell growth in a cell viability assay.

[24] = system: U-698-M; experiment: cells; assay type: functional, cell-based, Homo sapiens; details: Homo sapiens, U-698-M
Description: SANGER: Inhibition of human U-698-M cell growth in a cell viability assay.

[25] = system: CPC-N; experiment: cells; assay type: functional, cell-based, Homo sapiens; details: Homo sapiens, CPC-N;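 note: growth inhibition of CPC-N cells, with a cell viability assay as the readout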
Description: SANGER: Inhibition of human CPC-N cell growth in a cell viability assay.

[26] = system: NCI-H748; experiment: cells; assay type: functional, cell-based, Homo sapiens; details: Homo sapiens, NCI-H748;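 note: growth inhibition of NCI-H748 cells, measured by a cell viability assay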
Description: SANGER: Inhibition of human NCI-H748 cell growth in a cell viability assay.

[27] = system: NCI-H716; experiment: cells; assay type: functional, cell-based, Homo sapiens; details: Homo sapiens, NCI-H716;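 note: growth inhibition of human NCI-H716 cells, measured by a cell viability assay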
Description: SANGER: Inhibition of human NCI-H716 cell growth in a cell viability assay.

[28] = system: MHH-CALL-2; experiment: cells; assay type: functional, cell-based, Homo sapiens; details: Homo sapiens, MHH-CALL-2;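 note: growth inhibition of the cell line, read out in a cell viability assay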
Description: SANGER: Inhibition of human MHH-CALL-2 cell growth in a cell viability assay.

SMILES	IC50 [3]	IC50 [8]	IC50 [16]	IC50 [17]	IC50 [18]	IC50 [19]	IC50 [20]	IC50 [21]	IC50 [22]	IC50 [23]	IC50 [24]	IC50 [25]	IC50 [26]	IC50 [27]	IC50 [28]	further results
CO[C@@H]1[C@H](N(C)C(=O)c2ccccc2)C[C@H]2O[C@]1(C)n1c3ccccc3c3c4c(c5c6ccccc6n2c5c31)C(=O)NC4 [MIDOSTAURIN]	0.331 µM	> 0.512 µM	–	–	–	–	–	–	–	–	–	–	–	–	–	IC50 [1]: > 0.512 µM; IC50 [2]: > 0.512 µM; IC50 [4]: 0.319 µM; IC50 [5]: 0.333 µM; IC50 [6]: > 0.512 µM; IC50 [7]: > 0.512 µM; IC50 [9]: > 0.512 µM; IC50 [10]: > 0.512 µM; IC50 [11]: 0.267 µM; IC50 [12]: > 0.512 µM; IC50 [13]: > 0.512 µM; IC50 [14]: > 0.512 µM; IC50 [15]: > 0.512 µM
CC(C)C[C@H](NC(=O)[C@H](Cc1ccccc1)NC(=O)c1cnccn1)B(O)O [BORTEZOMIB]	0.0011 µM	0.000538 µM	0.000293 µM	0.00223 µM	> 0.02 µM	> 0.02 µM	0.00379 µM	0.005 µM	0.00446 µM	> 0.02 µM	> 0.02 µM	> 0.02 µM	0.00239 µM	> 0.02 µM	> 0.02 µM	–
C[C@@H](Oc1cc(-c2cnn(C3CCNCC3)c2)cnc1N)c1c(Cl)ccc(F)c1Cl [CRIZOTINIB]	–	> 2 µM	> 2 µM	> 2 µM	> 2 µM	> 2 µM	> 2 µM	> 2 µM	> 2 µM	> 2 µM	> 2 µM	> 2 µM	> 2 µM	> 2 µM	0.683 µM	–
Cc1cc(N2CCOCC2)cc2[nH]c(-c3c(NC[C@@H](O)c4cccc(Cl)c4)cc[nH]c3=O)nc12	–	> 5.12 µM	> 5.12 µM	> 5.12 µM	0.323 µM	> 5.12 µM	0.813 µM	5 µM	> 5.12 µM	–	> 5.12 µM	3.59 µM	> 5.12 µM	> 5.12 µM	> 5.12 µM	–
C=CC(=O)N1CCCC(Nc2nc(Nc3ccc(N(C)C(=O)CC)cc3)nc3[nH]cnc23)C1 (stereo not drawn)	–	> 10.2 µM	> 10.2 µM	> 10.2 µM	> 10.2 µM	> 10.2 µM	> 10.2 µM	> 10.2 µM	> 10.2 µM	–	> 10.2 µM	> 10.2 µM	> 10.2 µM	> 10.2 µM	> 10.2 µM	–
NC(=O)c1cccc(-c2cc(Nc3ccc(OC(F)(F)F)cc3)ncn2)c1	–	> 1.28 µM	> 1.28 µM	> 1.28 µM	> 1.28 µM	> 1.28 µM	> 1.28 µM	> 1.28 µM	> 1.28 µM	–	> 1.28 µM	> 1.28 µM	> 1.28 µM	> 1.28 µM	> 1.28 µM	–
